Among the data in ChEMBL document CHEMBL1629617, “IncA/C plasmid-mediated florfenicol resistance in the catfish pathogen Edwardsiella ictaluri” (2009) are MIC and Ratio values, retold here.

Holding throughout (type): functional
For test [1], the system named is Edwardsiella ictaluri. Nature of the test: Antimicrobial activity against florfenicol-resistant Edwardsiella ictaluri M07-1 by microdilution assay. For orientation: Dilution methods test growth across graded concentrations, often in twofold steps.
Test [2] relates to Escherichia coli. Description: Antimicrobial activity against Escherichia coli ATCC […] by microdilution assay.
The subject of test [3] is Escherichia coli. Description: Antimicrobial activity against Escherichia coli ATCC […] carrying Edwardsiella ictaluri pM07-1 by microdilution assay.
The subject of test [4] is Edwardsiella ictaluri. Nature of the test: Fold resistance, ratio of MIC for florfenicol-resistance Edwardsiella ictaluri M07-1 to MIC for florfenicol-susceptible Edwardsiella ictaluri.

SMILES strings stand for the structures. ≈ marks a conversion by molar mass, not a printed value.

In general, MIC refers to the least concentration at which growth counts as inhibited. A high value points to weaker potency. As to `CC1(C)S[C@@H]2[C@H](NC(=O)[C@H](N)c3ccc(O)cc3)C(=O)N2[C@H]1C(=O)O` [AMOXICILLIN], the results for the minimum inhibitory concentration (MIC) with Edwardsiella ictaluri [1], with Escherichia coli [2] and with Escherichia coli [3] were over 32 µg/mL, 4 µg/mL (≈ 10.9 µM) and over 32 µg/mL, respectively.
`CC1(C)S[C@@H]2[C@H](NC(=O)[C@H](N)c3ccccc3)C(=O)N2[C@H]1C(=O)O` [AMPICILLIN]: the MIC against Edwardsiella ictaluri [1] is over 32 µg/mL; against Escherichia coli [2], 4 µg/mL (≈ 11.4 µM); in the test on Escherichia coli [3], over 32 µg/mL.
For `CO[C@@]1(NC(=O)Cc2cccs2)C(=O)N2C(C(=O)O)=C(COC(N)=O)CS[C@@H]21` [CEFOXITIN], the MIC in the test with Edwardsiella ictaluri [1] was over 32 µg/mL; in the test with Escherichia coli [2], 4 µg/mL (≈ 9.36 µM); against Escherichia coli [3] it was over 32 µg/mL.
With `CO/N=C(\C(=O)N[C@@H]1C(=O)N2C(C(=O)O)=C(CSC(=O)c3ccco3)CS[C@H]12)c1csc(N)n1` [CEFTIOFUR], the MIC against Edwardsiella ictaluri [1] was 8 µg/mL (≈ 15.3 µM); against Escherichia coli [2], 0.5 µg/mL (≈ 0.955 µM); with Escherichia coli [3], over 8 µg/mL.
`CO/N=C(\C(=O)N[C@@H]1C(=O)N2C(C(=O)O)=C(CSc3nc(=O)c(O)nn3C)CS[C@H]12)c1csc(N)n1` [CEFTRIAXONE]: the MIC in the test with Edwardsiella ictaluri [1] was 32 µg/mL (≈ 57.7 µM); in the test with Escherichia coli [2] it was under 0.25 µg/mL; against Escherichia coli [3] it was 32 µg/mL (≈ 57.7 µM).
`O=C(N[C@H](CO)[C@H](O)c1ccc([N+](=O)[O-])cc1)C(Cl)Cl` [CHLORAMPHENICOL]: the MIC against Edwardsiella ictaluri [1] is over 32 µg/mL; in the test with Escherichia coli [2], 4 µg/mL (≈ 12.4 µM); in the test with Escherichia coli [3] it was over 32 µg/mL.
Consider `O=C(O)[C@H]1/C(=C/CO)O[C@@H]2CC(=O)N21` [CLAVULANIC ACID], for which the MIC worked out at 16 µg/mL (≈ 80.3 µM) against Edwardsiella ictaluri [1], 2 µg/mL (≈ 10 µM) against Escherichia coli [2] and 16 µg/mL (≈ 80.3 µM) against Escherichia coli [3].
For `CS(=O)(=O)c1ccc([C@@H](O)[C@@H](CF)NC(=O)C(Cl)Cl)cc1` [FLORFENICOL], the Ratio in the test with Edwardsiella ictaluri [4] amounted to 500. For the same compound, the MIC against Edwardsiella ictaluri [1] was 128 µg/mL (≈ 357 µM); against Escherichia coli [2], 4 µg/mL (≈ 11.2 µM); against Escherichia coli [3], 256 µg/mL (≈ 715 µM).
For `CN[C@@H]1[C@H](O[C@H]2[C@H](O[C@H]3[C@H](O)[C@@H](O)[C@H](N=C(N)N)[C@@H](O)[C@@H]3N=C(N)N)O[C@@H](C)[C@]2(O)C=O)O[C@@H](CO)[C@H](O)[C@H]1O` [STREPTOMYCIN], the MIC against Edwardsiella ictaluri [1] is over 64 µg/mL; in the test with Escherichia coli [2], under 32 µg/mL; in the test on Escherichia coli [3], over 64 µg/mL.
As to `Cc1cc(NS(=O)(=O)c2ccc(N)cc2)no1` [SULFAMETHOXAZOLE], the MIC is 19 µg/mL (≈ 75 µM) in the test with Edwardsiella ictaluri [1], 2.4 µg/mL (≈ 9.48 µM) in the test with Escherichia coli [2] and 19 µg/mL (≈ 75 µM) in the test with Escherichia coli [3].
In the case of `CN(C)[C@@H]1C(O)=C(C(N)=O)C(=O)[C@@]2(O)C(O)=C3C(=O)c4c(O)cccc4[C@@](C)(O)[C@H]3C[C@@H]12` [TETRACYCLINE], the MIC against Edwardsiella ictaluri [1] is 32 µg/mL (≈ 72 µM); in the test on Escherichia coli [2], 4 µg/mL (≈ 9 µM); with Escherichia coli [3], 32 µg/mL (≈ 72 µM).
Consider `COc1cc(Cc2cnc(N)nc2N)cc(OC)c1OC` [TRIMETHOPRIM], for which the values for the MIC against Edwardsiella ictaluri [1], in the test on Escherichia coli [2] and against Escherichia coli [3] were 1 µg/mL (≈ 3.44 µM), 0.1 µg/mL (≈ 0.344 µM) and 1 µg/mL (≈ 3.44 µM), respectively.
